Assay results taken from ChEMBL document CHEMBL3994647, “Synthesis and in vitro cytotoxic evaluation of new 1H-benzo[d]imidazole derivatives of dehydroabietic acid” (Bioorg Med Chem Lett, 2017).

How the values were obtained:
SMMC-7721 [1] = assay: Cell cycle arrest in human SMMC7721 cells assessed as accumulation at G2/M phase at 0.18 uM after 24 hrs by propidium iodide staining based flow cytometry (reference value: 3.43%); assay type: functional
SMMC-7721 [2] = assay: Induction of apoptosis in human SMMC7721 cells assessed as late apoptotic cells at 0.18 uM after 24 hrs by Annexin V-APC/7-AAD staining based flow cytometry (reference value: 10.72%); assay type: functional
SMMC-7721 [3] = assay: Induction of apoptosis in human SMMC7721 cells after 24 hrs by Annexin V-APC/7-AAD staining based flow cytometry; assay type: functional, cell-based
HepG2 = assay: Cytotoxicity against human HepG2 cells assessed as reduction in cell viability after 48 hrs by MTT assay; assay type: functional, cell-based; settings: HepG2, 48 h
SMMC-7721 [4] = assay: Induction of apoptosis in human SMMC7721 cells assessed as live cells at 0.36 uM after 24 hrs by Annexin V-APC/7-AAD staining based flow cytometry (reference value: 81.07%); assay type: functional
SMMC-7721 [5] = assay: Cell cycle arrest in human SMMC7721 cells assessed as accumulation at S phase at 0.36 uM after 24 hrs by propidium iodide staining based flow cytometry (reference value: 23.68%); assay type: functional
SMMC-7721 [6] = assay: Cell cycle arrest in human SMMC7721 cells assessed as accumulation at S phase at 0.18 uM after 24 hrs by propidium iodide staining based flow cytometry (reference value: 23.68%); assay type: functional
L02 = assay: Cytotoxicity against human LO2 cells assessed as reduction in cell viability after 48 hrs by MTT assay; assay type: cell-based; settings: L02, 48 h
SMMC-7721 [7] = assay: Induction of apoptosis in human SMMC7721 cells assessed as late apoptotic cells at 0.72 uM after 24 hrs by Annexin V-APC/7-AAD staining based flow cytometry (reference value: 10.72%); assay type: functional
SMMC-7721 [8] = assay: Cytotoxicity against human SMMC7721 cells assessed as reduction in cell viability after 48 hrs by MTT assay; assay type: functional, cell-based; settings: SMMC-7721, 48 h
SMMC-7721 [9] = assay: Induction of apoptosis in human SMMC7721 cells assessed as necrotic cells at 0.18 uM after 24 hrs by Annexin V-APC/7-AAD staining based flow cytometry (reference value: 0.77%); assay type: functional
SMMC-7721 [10] = assay: Induction of apoptosis in human SMMC7721 cells assessed as early apoptotic cells at 0.18 uM after 24 hrs by Annexin V-APC/7-AAD staining based flow cytometry (reference value: 7.44%); assay type: functional
SMMC-7721 [11] = assay: Induction of apoptosis in human SMMC7721 cells assessed as live cells at 0.18 uM after 24 hrs by Annexin V-APC/7-AAD staining based flow cytometry (reference value: 81.07%); assay type: functional
SMMC-7721 [12] = assay: Cell cycle arrest in human SMMC7721 cells assessed as accumulation at G0/G1 phase at 0.18 uM after 24 hrs by propidium iodide staining based flow cytometry (reference value: 72.89%); assay type: functional
SMMC-7721 [13] = assay: Induction of apoptosis in human SMMC7721 cells assessed as early apoptotic cells at 0.72 uM after 24 hrs by Annexin V-APC/7-AAD staining based flow cytometry (reference value: 7.44%); assay type: functional
SMMC-7721 [14] = assay: Induction of apoptosis in human SMMC7721 cells assessed as late apoptotic cells at 0.36 uM after 24 hrs by Annexin V-APC/7-AAD staining based flow cytometry (reference value: 10.72%); assay type: functional
SMMC-7721 [15] = assay: Cell cycle arrest in human SMMC7721 cells assessed as accumulation at G2/M phase at 0.36 uM after 24 hrs by propidium iodide staining based flow cytometry (reference value: 3.43%); assay type: functional
SMMC-7721 [16] = assay: Induction of apoptosis in human SMMC7721 cells assessed as live cells at 0.72 uM after 24 hrs by Annexin V-APC/7-AAD staining based flow cytometry (reference value: 81.07%); assay type: functional
SMMC-7721 [17] = assay: Induction of apoptosis in human SMMC7721 cells assessed as early apoptotic cells at 0.36 uM after 24 hrs by Annexin V-APC/7-AAD staining based flow cytometry (reference value: 7.44%); assay type: functional
SMMC-7721 [18] = assay: Cell cycle arrest in human SMMC7721 cells assessed as accumulation at S phase at 0.72 uM after 24 hrs by propidium iodide staining based flow cytometry (reference value: 23.68%); assay type: functional
SMMC-7721 [19] = assay: Induction of apoptosis in human SMMC7721 cells assessed as necrotic cells at 0.72 uM after 24 hrs by Annexin V-APC/7-AAD staining based flow cytometry (reference value: 0.77%); assay type: functional
SMMC-7721 [20] = assay: Cell cycle arrest in human SMMC7721 cells assessed as accumulation at G2/M phase at 0.72 uM after 24 hrs by propidium iodide staining based flow cytometry (reference value: 3.43%); assay type: functional
SMMC-7721 [21] = assay: Cell cycle arrest in human SMMC7721 cells assessed as accumulation at G0/G1 phase at 0.36 uM after 24 hrs by propidium iodide staining based flow cytometry (reference value: 72.89%); assay type: functional
SMMC-7721 [22] = assay: Cell cycle arrest in human SMMC7721 cells assessed as accumulation at G0/G1 phase at 0.72 uM after 24 hrs by propidium iodide staining based flow cytometry (reference value: 72.89%); assay type: functional
SMMC-7721 [23] = assay: Cell cycle arrest in human SMMC7721 cells assessed as accumulation at G2/M phase after 24 hrs by propidium iodide staining based flow cytometry; assay type: functional
SMMC-7721 [24] = assay: Induction of apoptosis in human SMMC7721 cells assessed as necrotic cells at 0.36 uM after 24 hrs by Annexin V-APC/7-AAD staining based flow cytometry (reference value: 0.77%); assay type: functional

COC(=O)[C@]1(C)CCC[C@]2(C)c3cc(Br)c4nc(/N=C/c5cc(F)ccc5O)[nH]c4c3CC[C@@H]12
Activity (SMMC-7721 [1]): 5.96%
Activity (SMMC-7721 [2]): 10.44%
Activity (SMMC-7721 [3]): Dose-dependent effect
IC50 (HepG2): 0.61 µM
Activity (SMMC-7721 [4]): 59.86%
Activity (SMMC-7721 [5]): 19.61%
Activity (SMMC-7721 [6]): 17.11%
IC50 (L02): 3.89 µM
Activity (SMMC-7721 [7]): 81.27%
IC50 (SMMC-7721 [8]): 0.36 µM
Activity (SMMC-7721 [9]): 0.95%
Activity (SMMC-7721 [10]): 12.71%
Activity (SMMC-7721 [11]): 75.91%
Activity (SMMC-7721 [12]): 76.93%
Activity (SMMC-7721 [13]): 9.75%
Activity (SMMC-7721 [14]): 10.21%
Activity (SMMC-7721 [15]): 6.45%
Activity (SMMC-7721 [16]): 7.97%
Activity (SMMC-7721 [17]): 29.05%
Activity (SMMC-7721 [18]): 22.69%
Activity (SMMC-7721 [19]): 1%
Activity (SMMC-7721 [20]): 10.91%
Activity (SMMC-7721 [21]): 73.94%
Activity (SMMC-7721 [22]): 66.4%
Activity (SMMC-7721 [23]): Dose-dependent effect
Activity (SMMC-7721 [24]): 0.87%

COC(=O)[C@]1(C)CCC[C@]2(C)c3cc(Br)c4nc(/N=C/c5cc(C)ccc5O)[nH]c4c3CC[C@@H]12
IC50 (HepG2): 0.12 µM
IC50 (L02): 3.02 µM
IC50 (SMMC-7721 [8]): 0.56 µM

COC(=O)[C@]1(C)CCC[C@]2(C)c3cc(Br)c4nc(NCc5cc(C)ccc5O)[nH]c4c3CC[C@@H]12
IC50 (HepG2): 6.22 µM
IC50 (L02): 17.3 µM
IC50 (SMMC-7721 [8]): 0.83 µM

COC(=O)[C@]1(C)CCC[C@]2(C)c3cc(Br)c4nc(NCc5cc(Cl)cc(Cl)c5O)[nH]c4c3CC[C@@H]12
IC50 (HepG2): 2.38 µM
IC50 (L02): 7.26 µM
IC50 (SMMC-7721 [8]): 0.93 µM

CCN(CC)c1ccc(/C=N/c2nc3c(Br)cc4c(c3[nH]2)CC[C@H]2[C@](C)(C(=O)OC)CCC[C@]42C)c(O)c1
IC50 (HepG2): 0.16 µM
IC50 (L02): 2.91 µM
IC50 (SMMC-7721 [8]): 0.87 µM

COc1cc([C@@H]2c3cc4c(cc3[C@@H](O[C@@H]3O[C@@H]5CO[C@@H](C)O[C@H]5[C@H](O)[C@H]3O)[C@H]3COC(=O)[C@H]23)OCO4)cc(OC)c1O [ETOPOSIDE]
IC50 (HepG2): 0.83 µM
IC50 (L02): 3.78 µM
IC50 (SMMC-7721 [8]): 0.15 µM

COC(=O)[C@]1(C)CCC[C@]2(C)c3cc(Br)c4nc(NCc5ccc6ccccc6c5O)[nH]c4c3CC[C@@H]12
IC50 (HepG2): 21.2 µM
IC50 (L02): > 50 µM
IC50 (SMMC-7721 [8]): 22.4 µM

CCN(CC)c1ccc(CNc2nc3c(Br)cc4c(c3[nH]2)CC[C@H]2[C@](C)(C(=O)OC)CCC[C@]42C)c(O)c1
IC50 (HepG2): 3.38 µM
IC50 (L02): 12.2 µM
IC50 (SMMC-7721 [8]): 3.76 µM

COC(=O)[C@]1(C)CCC[C@]2(C)c3cc(Br)c(N)c(N)c3CC[C@@H]12
IC50 (HepG2): > 50 µM
IC50 (L02): > 50 µM
IC50 (SMMC-7721 [8]): > 50 µM

COC(=O)[C@]1(C)CCC[C@]2(C)c3cc(Br)c4nc(NCc5cc([N+](=O)[O-])ccc5O)[nH]c4c3CC[C@@H]12
IC50 (HepG2): 5.52 µM
IC50 (L02): 18.3 µM
IC50 (SMMC-7721 [8]): 1.37 µM

COC(=O)[C@]1(C)CCC[C@]2(C)c3cc(Br)c([N+](=O)[O-])c([N+](=O)[O-])c3CC[C@@H]12
IC50 (HepG2): 34.2 µM
IC50 (L02): > 50 µM
IC50 (SMMC-7721 [8]): 29.8 µM

COC(=O)[C@]1(C)CCC[C@]2(C)c3cc(Br)c4nc(/N=C/c5ccc6ccccc6c5O)[nH]c4c3CC[C@@H]12
IC50 (HepG2): 1.08 µM
IC50 (L02): 10.8 µM
IC50 (SMMC-7721 [8]): 2.08 µM

COC(=O)[C@]1(C)CCC[C@]2(C)c3cc(Br)c4nc(/N=C/c5cc([N+](=O)[O-])ccc5O)[nH]c4c3CC[C@@H]12
IC50 (HepG2): 2.4 µM
IC50 (L02): 8.71 µM
IC50 (SMMC-7721 [8]): 1.28 µM

COC(=O)[C@]1(C)CCC[C@]2(C)c3cc(Br)c4nc(/N=C/c5ccc(F)cc5O)[nH]c4c3CC[C@@H]12
IC50 (HepG2): 1.24 µM
IC50 (L02): 19 µM
IC50 (SMMC-7721 [8]): 12.2 µM

COC(=O)[C@]1(C)CCC[C@]2(C)c3cc(Br)c4nc(/N=C/c5cccc(F)c5O)[nH]c4c3CC[C@@H]12
IC50 (HepG2): 0.43 µM
IC50 (L02): 8.35 µM
IC50 (SMMC-7721 [8]): 2 µM

COC(=O)[C@]1(C)CCC[C@]2(C)c3cc(Br)c4nc(NCc5cc(Cl)ccc5O)[nH]c4c3CC[C@@H]12
IC50 (HepG2): 11.8 µM
IC50 (L02): 26.8 µM
IC50 (SMMC-7721 [8]): 3.19 µM

COC(=O)[C@]1(C)CCC[C@]2(C)c3cc(Br)c4nc(/N=C/c5cc(Cl)cc(Cl)c5O)[nH]c4c3CC[C@@H]12
IC50 (HepG2): 0.69 µM
IC50 (L02): 7.21 µM
IC50 (SMMC-7721 [8]): 1.72 µM

COC(=O)[C@]1(C)CCC[C@]2(C)c3cc(Br)c4nc(/N=C/c5cc(Cl)ccc5O)[nH]c4c3CC[C@@H]12
IC50 (HepG2): 1.81 µM
IC50 (L02): 6.56 µM
IC50 (SMMC-7721 [8]): 2.2 µM

COC(=O)[C@]1(C)CCC[C@]2(C)c3cc(Br)c4nc(N)[nH]c4c3CC[C@@H]12
IC50 (HepG2): 15.3 µM
IC50 (L02): > 50 µM
IC50 (SMMC-7721 [8]): 8.74 µM

COC(=O)[C@]1(C)CCC[C@]2(C)c3cc(Br)c4nc(NCc5cccc(F)c5O)[nH]c4c3CC[C@@H]12
IC50 (HepG2): 1.65 µM
IC50 (L02): 12.7 µM
IC50 (SMMC-7721 [8]): 4.27 µM

COC(=O)[C@]1(C)CCC[C@]2(C)c3cc(Br)c4nc(NCc5ccc(F)cc5O)[nH]c4c3CC[C@@H]12
IC50 (HepG2): 4.6 µM
IC50 (L02): 22.1 µM
IC50 (SMMC-7721 [8]): 10.6 µM

COC(=O)[C@]1(C)CCC[C@]2(C)c3cc(Br)c4nc(/N=C/c5cc(Br)ccc5O)[nH]c4c3CC[C@@H]12
IC50 (HepG2): 0.73 µM
IC50 (L02): 7.22 µM
IC50 (SMMC-7721 [8]): 2.84 µM

COC(=O)[C@]1(C)CCC[C@]2(C)c3cc(Br)c4nc(NCc5cc(F)ccc5O)[nH]c4c3CC[C@@H]12
IC50 (HepG2): 4.6 µM
IC50 (L02): 31.4 µM
IC50 (SMMC-7721 [8]): 10.6 µM

COC(=O)[C@]1(C)CCC[C@]2(C)c3cc(Br)c4nc(NCc5cc(Br)ccc5O)[nH]c4c3CC[C@@H]12
IC50 (HepG2): 4.21 µM
IC50 (L02): 21.6 µM
IC50 (SMMC-7721 [8]): 4.02 µM

COC(=O)[C@]1(C)CCC[C@]2(C)c3cc(Br)c4nc(/N=C/c5ccccc5O)[nH]c4c3CC[C@@H]12
IC50 (HepG2): 0.21 µM
IC50 (L02): 6.27 µM
IC50 (SMMC-7721 [8]): 2.47 µM

COC(=O)[C@]1(C)CCC[C@]2(C)c3cc(Br)c4nc(NCc5ccccc5O)[nH]c4c3CC[C@@H]12
IC50 (HepG2): 22.5 µM
IC50 (L02): > 50 µM
IC50 (SMMC-7721 [8]): 3.15 µM
